# Measured values taken from US4564619A, “Carbostyril derivative” (Otsuka Pharmaceutical Co., Ltd., priority 1982, dated 1986).
# Legend:
# [1] = system: collagen-induced aggregation in rabbit platelets; assay: Inhibition of collagen-induced platelet aggregation in rabbit platelet rich plasma; format: cell-based; details: Oryctolagus cuniculus, read-out: Inhibition rate of collagen-induced aggregation; for inhibition at 100 µM (stock): Concentration of the test compound solution 10^-4 mole; for inhibition at 10 µM (stock): Concentration of the test compound solution 10^-5 mole
# Description: (§1) The platelet aggregation inhibitory effect was measured by using a Platelet Aggregation Tracer Model PAT-6M (manufactured by Nikoh Bio-Science Co., Ltd.) by a method according to Kimura, et al., [IGAKU-NO-AYUMI (Progress in Medicine), Vol. 114, No. 9, pp. 718-727, Aug. 30, 1980, and Nature, pp. 927-929, 1962].
# (§2) The blood sample used for the test was a 1:9 (by volume) mixture of "3.8%-CITRATE"® (a registered trademark for 3.8%-sodium citrate, manufactured by Green Cross Corp.) and whole blood collected from rabbits. Said sample was subjected to 10-minute centrifugal separation at 1,000 r.p.m. (200xG) to obtain a platelet rich plasma (PRP). The PRP thus obtained was separated, and the remaining blood sample was further subjected to 15-minute centrifugal separation at 3,000 r.p.m. (2,000xG) to obtain a platelet poor plasma (PPP).
# (§3) The number of platelets in the PRP was counted by the Brecher-Clonkite Method, and the PRP was diluted with the PPP to prepare a PRP sample with a platelet concentration of 600,000/microliter to prepare for an adenosine diphosphate (ADP)-induced aggregation test, and a collagen-induced aggregation test. 0.2 Milliliter of the PRP sample was added to 2 microliters of a solution of a test compound of predetermined concentration and this mixture was placed in a 37° C. thermostat for one minute. Then 20 microliters of an ADP or collagen solution was added to the mixture. In this test, the ADP solution was prepared by adjustment to a concentration of 7.5×10^-5 M by using Auren-Beronal buffer solution (pH 7.35). Further, the collagen solution was prepared by adjustment to a concentration of 200 micrograms/ml by using collagen reagent of "Holm"® (manufactured by Hormon-Chemie Munchen, GmbH.) which was diluted wih a physiological saline solution.
# (§4) The transmittance of the resultant test mixture was determined and the change of transmittance was recorded by using the aggregometer at a stirrer speed of 1,100 r.p.m.
# (§5) The platelet aggregation inhibitory effect of the test compound was measured in terms of inhibition rate (%) with respect to the aggregation rate of the controls. The aggregation rate was calculated from the following formula.
# (§6) Aggregation rate=[(c-a)/(b-a)]×100
# (§7) The percent inhibition is calculated from the following formula.
# (§8) Inhibition rate (%)=[(A-B)/A]×100
# (§9) The inhibitory effect of the test compounds on collagen-induced aggregation in rabbit platelets is shown in Table 1, similarly such effect on ADP-induced aggregation in rabbit platelets is shown in Table 2.
# [2] = system: ADP-induced aggregation in rabbit platelets; assay: Inhibition of ADP-induced platelet aggregation in rabbit platelet rich plasma; format: cell-based; details: Oryctolagus cuniculus, read-out: Inhibition rate of ADP-induced aggregation; for inhibition at 100 µM (stock): Concentration of the test compound solution 10^-4 mole; for inhibition at 10 µM (stock): Concentration of the test compound solution 10^-5 mole
# Description: as §1, §2, §3, §4, §5, §6, §7, §8, §9
# [3] = Change of blood pressure, intravenous administration, anesthetized dog; format: in vivo; design: unit not given here; details: femoral artery
# Description: The change of blood flow in coronary artery and the change of blood pressure were measured by a method according to Yakura et al., [Japan Journal of Pharmacology, Vol. 57, pages 380-391 (1961)] and according to Taira, et al. [Clin. Exp. Pharmacol. Physiol., Vol. 6, pages 301-316, (1976)].
# An adult bastard dog of either sex weighing 8-13 kg was anesthetized with sodium pentobarbital at the rate of 30 mg/kg by intraveneous administration, then the dog was fixed in supination and was theracotomized under a condition of forced breathing. After another intraveneous administration of sodium heparin at the rate of 500 U/kg, 100 U/kg per hour, the dog was subjected to the following experiments.
# (2) Intraveneous administration
# Morawitz's cannula was cannulated to the coronary sinus venosus through the auricula dextra cordis, and the blood in vein was circulated to the right carotid. The blood flow was measured by an electromagnetic blood flow meter equipped with a blood flow observation probe in the extracorporeal circulation path of the vein. The systolic force was measured by a systolometer (pick-up) placed at the left ventricle of heart, the blood pressure was measured from the femoral artery, and the heart rate was measured from the pulse. A compound to be tested was administered through the cannula being cannulated in femoral vein. The increased amount of the blood flow in coronary artery after the administration of the test compound is shown in Table 4, also the change of blood pressure is shown in Table 5.
compound,measurement,setting,value
"COC(=O)C1=C(C)NC(C)=C(C(=O)OCCCCOc2ccc3c(c2)CCC(=O)N3)C1c1ccccc1C (stereo not drawn) [Compound 29, 6-{4-[2,6-Dimethyl-5-methoxycarbonyl-4-(2-methylphenyl-1,4-dihydropyridin-3-carboxy)]-butoxy}-3,4-dihydrocarbostyril]",inhibition at 100 µM (stock),[1],69%
same,inhibition at 100 µM (stock),[2],59%
same,Change of blood pressure,[3]; 3 micrograms/kg,-7
same,Change of blood pressure,[3]; 10 micrograms/kg,-23
same,Change of blood pressure,[3]; 30 micrograms/kg,-45
same,Change of blood pressure,[3]; 100 micrograms/kg,-70
same,Change of blood pressure,[3]; 300 micrograms/kg,-80
"COC(=O)C1=C(C)NC(C)=C(C(=O)OCC(COc2ccc3[nH]c(=O)ccc3c2)OC(C)=O)C1c1cccc([N+](=O)[O-])c1 (stereo not drawn) [Compound 43, 6-{3-[2,6-Dimethyl-5-methoxycarbonyl-4-(3-nitrophenyl)-1,4-dihydropyridin-3-carboxy]-2-acetoxypropoxy}carbostyril]",inhibition at 100 µM (stock),[1],100%
same,inhibition at 10 µM (stock),[1],100%
same,inhibition at 100 µM (stock),[2],100%
same,inhibition at 10 µM (stock),[2],100%
same,Change of blood pressure,[3]; 30 micrograms/kg,-4
same,Change of blood pressure,[3]; 100 micrograms/kg,-16
same,Change of blood pressure,[3]; 300 micrograms/kg,-23
"COC(=O)C1=C(C)NC(C)=C(C(=O)OCCCCOc2ccc3c(c2)CCC(=O)N3)C1c1ccccc1C(=O)OC (stereo not drawn) [Compound 30, 6-{4-[2,6-Dimethyl-5-methoxycarbonyl-4-(2-methoxycarbonyl)-1,4-dihydropyridin-3-carboxy]butoxy}-3,4-dihydrocarbostyril]",inhibition at 100 µM (stock),[1],100%
same,inhibition at 10 µM (stock),[1],3%
same,inhibition at 100 µM (stock),[2],89%
same,Change of blood pressure,[3]; 10 micrograms/kg,-1
same,Change of blood pressure,[3]; 30 micrograms/kg,-16
same,Change of blood pressure,[3]; 100 micrograms/kg,-38
"COC(=O)C1=C(C)NC(C)=C(C(=O)OCCCCOc2ccc3c(c2)CCC(=O)N3)C1c1ccccc1SC (stereo not drawn) [Compound 26, 6-{4-[2,6-Dimethyl-5-methoxycarbonyl-4-(2-methylthiophenyl)-1,4-dihydropyridin-3-carboxy]butoxy}-3,4-dihydrocarbostyril]",inhibition at 100 µM (stock),[1],100%
same,inhibition at 10 µM (stock),[1],19%
same,inhibition at 100 µM (stock),[2],87%
same,inhibition at 10 µM (stock),[2],22%
same,Change of blood pressure,[3]; 10 micrograms/kg,-6
same,Change of blood pressure,[3]; 30 micrograms/kg,-10
same,Change of blood pressure,[3]; 100 micrograms/kg,-21
same,Change of blood pressure,[3]; 300 micrograms/kg,-42
"COC(=O)C1=C(C)NC(C)=C(C(=O)OCCOc2ccc3c(c2)CCC(=O)N3)C1c1ccccc1[N+](=O)[O-] (stereo not drawn) [Compound 21, 6-{2-[2,6-Dimethyl-5-methoxycarbonyl-4-(2-nitrophenyl)-1,4-dihydropyridin-3-carboxy]-ethoxy}-3,4-dihydrocarbostyril]",inhibition at 100 µM (stock),[1],100%
same,inhibition at 10 µM (stock),[1],99%
same,inhibition at 100 µM (stock),[2],58%
same,inhibition at 10 µM (stock),[2],27%
same,Change of blood pressure,[3]; 10 micrograms/kg,-7
same,Change of blood pressure,[3]; 30 micrograms/kg,-12
same,Change of blood pressure,[3]; 100 micrograms/kg,-28
same,Change of blood pressure,[3]; 300 micrograms/kg,-42
"COC(=O)C1=C(C)NC(C)=C(C(=O)OCCCOc2cc(=O)[nH]c3ccccc23)C1c1cccc([N+](=O)[O-])c1 (stereo not drawn) [Compound 37, 4-{3-[2,6-Dimethyl-5-methoxycarbonyl-4-(3-nitrophenyl)-1,4-dihydropyridin-3-carboxy]propoxy}carbostyril]",inhibition at 100 µM (stock),[1],15%
same,inhibition at 100 µM (stock),[2],17%
same,Change of blood pressure,[3]; 30 micrograms/kg,-1
same,Change of blood pressure,[3]; 100 micrograms/kg,-5
same,Change of blood pressure,[3]; 300 micrograms/kg,-18
"COC(=O)C1=C(C)NC(C)=C(C(=O)OCCCOc2ccc3[nH]c(=O)cc(C)c3c2)C1c1cccc([N+](=O)[O-])c1 (stereo not drawn) [Compound 38, 4-Methyl-6-{3-[2,6-dimethyl-5-methoxycarbonyl-4-(3-nitrophenyl)-1,4-dihydropyridin-3-carboxy]propoxy}carbostyril]",inhibition at 100 µM (stock),[1],45%
same,inhibition at 100 µM (stock),[2],31%
same,Change of blood pressure,[3]; 10 micrograms/kg,-2
same,Change of blood pressure,[3]; 30 micrograms/kg,-10
same,Change of blood pressure,[3]; 100 micrograms/kg,-35
"COC(=O)C1=C(C)NC(C)=C(C(=O)OCCCCOc2cccc3[nH]c(=O)ccc23)C1c1cccc([N+](=O)[O-])c1 (stereo not drawn) [Compound 18, 5-{4-[2,6-Dimethyl-5-methoxycarbonyl-4-(3-nitrophenyl)-1,4-dihydropyridin-3-carboxy]-butoxy}carbostyril]",inhibition at 100 µM (stock),[1],100%
same,inhibition at 10 µM (stock),[1],3%
same,inhibition at 100 µM (stock),[2],48%
same,inhibition at 10 µM (stock),[2],15%
same,Change of blood pressure,[3]; 10 micrograms/kg,-5
same,Change of blood pressure,[3]; 30 micrograms/kg,-19
same,Change of blood pressure,[3]; 100 micrograms/kg,-33
same,Change of blood pressure,[3]; 300 micrograms/kg,-43
"COC(=O)C1=C(C)NC(C)=C(C(=O)OCCCCOc2ccc3c(c2)CCC(=O)N3)C1c1ccccc1 (stereo not drawn) [Compound 28, 6-[4-(2,6-Dimethyl-5-methoxycarbonyl-4-phenyl-1,4-dihydropyridin-3-carboxy)butoxy]-3,4-dihydrocarbostyril]",inhibition at 100 µM (stock),[1],63%
same,inhibition at 100 µM (stock),[2],52%
same,Change of blood pressure,[3]; 3 micrograms/kg,-1
same,Change of blood pressure,[3]; 10 micrograms/kg,-10
same,Change of blood pressure,[3]; 30 micrograms/kg,-7
same,Change of blood pressure,[3]; 100 micrograms/kg,-20
same,Change of blood pressure,[3]; 300 micrograms/kg,-47
"COC(=O)C1=C(C)NC(C)=C(C(=O)OCCCCOc2ccc3c(c2)CCC(=O)N3)C1c1ccccc1Cl (stereo not drawn) [Compound 27, 6-{4-[2,6-Dimethyl-5-methoxycarbonyl-4-(2-chlorophenyl)-1,4-dihydropyridin-3-carboxy]-butoxy}-3,4-dihydrocarbostyril]",inhibition at 100 µM (stock),[1],61%
same,inhibition at 100 µM (stock),[2],42%
same,Change of blood pressure,[3]; 3 micrograms/kg,-4
same,Change of blood pressure,[3]; 10 micrograms/kg,-10
same,Change of blood pressure,[3]; 30 micrograms/kg,-27
same,Change of blood pressure,[3]; 100 micrograms/kg,-52
"COC(=O)C1=C(C)NC(C)=C(C(=O)OCCCCOc2ccc3[nH]c(=O)ccc3c2)C1c1cccc([N+](=O)[O-])c1 (stereo not drawn) [Compound 15, 6-{4-[2,6-Dimethyl-5-methoxycarbonyl-4-(3-nitrophenyl)-1,4-dihydropyridin-3-carboxy]-butoxy}carbostyril]",inhibition at 100 µM (stock),[1],100%
same,inhibition at 10 µM (stock),[1],26%
same,inhibition at 100 µM (stock),[2],100%
same,inhibition at 10 µM (stock),[2],20%
same,Change of blood pressure,[3]; 30 micrograms/kg,-3
same,Change of blood pressure,[3]; 100 micrograms/kg,-9
same,Change of blood pressure,[3]; 300 micrograms/kg,-27
"COC(=O)C1=C(C)NC(C)=C(C(=O)OCCCOc2cccc3[nH]c(=O)ccc23)C1c1cccc([N+](=O)[O-])c1 (stereo not drawn) [Compound 22, 5-{3-[2,6-Dimethyl-5-methoxycarbonyl-4-(3-nitrophenyl)-1,4-dihydropyridin-3-carboxy]-propoxy}carbostyril]",inhibition at 100 µM (stock),[1],100%
same,inhibition at 10 µM (stock),[1],21%
same,inhibition at 100 µM (stock),[2],62%
same,inhibition at 10 µM (stock),[2],13%
same,Change of blood pressure,[3]; 10 micrograms/kg,-2
same,Change of blood pressure,[3]; 30 micrograms/kg,-8
same,Change of blood pressure,[3]; 100 micrograms/kg,-18
same,Change of blood pressure,[3]; 300 micrograms/kg,-36
"COC(=O)C1=C(C)NC(C)=C(C(=O)OCCCCOc2ccc3[nH]c(=O)ccc3c2)C1c1ccccc1C(F)(F)F (stereo not drawn) [Compound 24, 6-{4-[2,6-Dimethyl-5-methoxycarbonyl-4-(2-trifluoromethylphenyl)-1,4-dihydropyridin-3-carboxy]butoxy}carbostyril]",inhibition at 100 µM (stock),[1],100%
same,inhibition at 10 µM (stock),[1],30%
same,inhibition at 100 µM (stock),[2],100%
same,inhibition at 10 µM (stock),[2],62%
same,Change of blood pressure,[3]; 10 micrograms/kg,-6
same,Change of blood pressure,[3]; 30 micrograms/kg,-18
same,Change of blood pressure,[3]; 100 micrograms/kg,-30
same,Change of blood pressure,[3]; 300 micrograms/kg,-44
